These results are taken from ChEMBL document CHEMBL2440019, “Discovery of an in vivo chemical probe of the lysine methyltransferases G9a and GLP” (J Med Chem, 2013).

The test system of data set [1] is Plasma. Briefly: AUC (0 to 24 hrs) in Swiss albino mouse plasma at 5 mg/kg, ip. It counts as ADME, organism-based. Further details: time < 24 hr, dose 5 mg/kg, route intraperitoneal. To be noted: in vivo.
In data set [2] the test system is Plasma. Briefly: Cmax in Swiss albino mouse plasma at 5 mg/kg, ip. The data set is classed as ADME, organism-based. The arrangement: dose 5 mg/kg, route intraperitoneal. To be noted: in vivo.
Another data set deals with Liver. The data set is described as follows: Half life in mouse liver microsomes. It counts as ADME, Microsome.
Data set [3] addresses T1, Histone-lysine N-methyltransferase EHMT2 (Homo sapiens, UniProt Q96KQ7).
T1 sequence (Q96KQ7 whole entry): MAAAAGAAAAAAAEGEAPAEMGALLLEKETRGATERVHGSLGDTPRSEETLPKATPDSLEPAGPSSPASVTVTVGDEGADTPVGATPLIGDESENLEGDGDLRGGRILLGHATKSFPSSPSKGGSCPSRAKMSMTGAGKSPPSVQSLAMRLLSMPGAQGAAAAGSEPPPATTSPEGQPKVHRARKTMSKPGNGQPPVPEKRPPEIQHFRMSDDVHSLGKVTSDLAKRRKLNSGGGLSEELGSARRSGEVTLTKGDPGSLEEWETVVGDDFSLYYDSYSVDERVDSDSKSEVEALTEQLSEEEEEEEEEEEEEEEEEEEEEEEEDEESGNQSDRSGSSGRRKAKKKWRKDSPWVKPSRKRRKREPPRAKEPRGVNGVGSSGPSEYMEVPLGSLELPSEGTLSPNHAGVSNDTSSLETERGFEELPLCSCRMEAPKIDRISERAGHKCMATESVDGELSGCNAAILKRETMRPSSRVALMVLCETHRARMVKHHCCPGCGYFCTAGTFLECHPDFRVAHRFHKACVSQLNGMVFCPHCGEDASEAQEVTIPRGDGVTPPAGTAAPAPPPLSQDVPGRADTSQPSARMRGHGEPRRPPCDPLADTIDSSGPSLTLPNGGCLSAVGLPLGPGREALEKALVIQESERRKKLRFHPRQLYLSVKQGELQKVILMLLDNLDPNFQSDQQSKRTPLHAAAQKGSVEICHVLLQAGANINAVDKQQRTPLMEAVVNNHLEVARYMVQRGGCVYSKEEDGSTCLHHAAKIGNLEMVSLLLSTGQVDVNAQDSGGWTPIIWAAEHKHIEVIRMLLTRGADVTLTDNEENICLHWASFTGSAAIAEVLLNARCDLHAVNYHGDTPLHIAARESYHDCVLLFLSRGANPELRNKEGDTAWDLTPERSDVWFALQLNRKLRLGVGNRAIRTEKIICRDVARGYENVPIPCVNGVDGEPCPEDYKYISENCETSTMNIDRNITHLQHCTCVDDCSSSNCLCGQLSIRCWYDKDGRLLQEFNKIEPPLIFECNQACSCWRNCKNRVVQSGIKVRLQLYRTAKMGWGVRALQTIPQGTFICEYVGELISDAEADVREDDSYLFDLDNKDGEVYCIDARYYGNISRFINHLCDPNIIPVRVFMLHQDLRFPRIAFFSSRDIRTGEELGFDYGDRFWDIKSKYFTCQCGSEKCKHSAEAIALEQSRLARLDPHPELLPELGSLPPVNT
Description: Inhibition of lysine methyltransferase G9a (unknown origin) using [3H]-SAM as substrate after 0.25 hrs by scintillation proximity assay

In data set [4] the target is T1, Histone-lysine N-methyltransferase EHMT2. The source holds these as a separate data set.
Description: Inhibition of lysine methyltransferase G9a in human MDA-MB-231 cells assessed as reduction of H3K9me2 cellular level by immunofluorescence in-cell Western assay
The next data set has as its system MDA-MB-231. Briefly: cells. To be noted: Homo sapiens, MDA-MB-231, 48 h.
Data set [5] in a line: AUC (0 to 24 hrs) in Swiss albino mouse brain at 5 mg/kg, ip. It counts as ADME, organism-based. The arrangement: time < 24 hr, dose 5 mg/kg, route intraperitoneal.
Another data set concerns Nucleic Acid. The data set is described as follows: Ratio of drug level in brain to plasma in Swiss albino mouse at 5 mg/kg, ip. The data set is classed as ADME, organism-based. Further details: dose 5 mg/kg, route intraperitoneal.
Data set [6] is described as follows: Cmax in Swiss albino mouse brain at 5 mg/kg, ip. The data set is classed as ADME, organism-based. Further details: dose 5 mg/kg, route intraperitoneal.
Another data set relates to PANC-1. The data set is described as follows: Cytotoxicity against human PANC1 cells after 48 hrs by Alamar Blue assay. The data set is classed as cell-based. To be noted: PANC-1, 48 h.
A further data set concerns PC-3. The data set is described as follows: Cytotoxicity against human PC3 cells after 48 hrs by Alamar Blue assay. The data set is classed as cell-based. As to conditions: PC-3, 48 h. Background: Resazurin is reduced to fluorescent resorufin, in cell work by metabolically active cells.
In a further data set the test system is U2OS. Briefly: Cytotoxicity against human U2OS cells after 48 hrs by Alamar Blue assay. The data set is classed as cell-based.
Data set [7] can be described thus: Binding affinity to sigma 2 receptor (unknown origin) by radioligand binding assay. Further details: species or system Homo sapiens.
The next data set has as its target Histamine H3 receptor (Homo sapiens, UniProt Q9Y5N1). The data set is described as follows: Binding affinity to histamine H3 receptor (unknown origin) by radioligand binding assay.
For data set [8], the target named is T2, Alpha-2C adrenergic receptor (Homo sapiens, UniProt P18825).
T2 sequence (P18825 whole entry): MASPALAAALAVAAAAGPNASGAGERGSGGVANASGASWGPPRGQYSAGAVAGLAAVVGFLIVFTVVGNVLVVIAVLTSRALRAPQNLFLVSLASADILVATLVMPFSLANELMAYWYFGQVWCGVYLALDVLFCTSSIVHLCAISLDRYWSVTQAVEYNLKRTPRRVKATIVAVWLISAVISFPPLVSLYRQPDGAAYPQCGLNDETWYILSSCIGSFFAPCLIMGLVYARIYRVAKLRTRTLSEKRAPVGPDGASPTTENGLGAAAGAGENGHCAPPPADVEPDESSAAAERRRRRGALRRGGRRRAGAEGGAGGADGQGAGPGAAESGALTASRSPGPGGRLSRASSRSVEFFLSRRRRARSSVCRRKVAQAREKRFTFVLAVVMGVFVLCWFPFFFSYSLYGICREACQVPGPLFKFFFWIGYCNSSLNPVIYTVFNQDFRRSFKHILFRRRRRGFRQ
The data set is described as follows: Binding affinity to adrenergic alpha2C receptor (unknown origin) by radioligand binding assay.

Data set [9] concerns the target T3, Alpha-1D adrenergic receptor (Homo sapiens, UniProt P25100).
T3 sequence (P25100 whole entry): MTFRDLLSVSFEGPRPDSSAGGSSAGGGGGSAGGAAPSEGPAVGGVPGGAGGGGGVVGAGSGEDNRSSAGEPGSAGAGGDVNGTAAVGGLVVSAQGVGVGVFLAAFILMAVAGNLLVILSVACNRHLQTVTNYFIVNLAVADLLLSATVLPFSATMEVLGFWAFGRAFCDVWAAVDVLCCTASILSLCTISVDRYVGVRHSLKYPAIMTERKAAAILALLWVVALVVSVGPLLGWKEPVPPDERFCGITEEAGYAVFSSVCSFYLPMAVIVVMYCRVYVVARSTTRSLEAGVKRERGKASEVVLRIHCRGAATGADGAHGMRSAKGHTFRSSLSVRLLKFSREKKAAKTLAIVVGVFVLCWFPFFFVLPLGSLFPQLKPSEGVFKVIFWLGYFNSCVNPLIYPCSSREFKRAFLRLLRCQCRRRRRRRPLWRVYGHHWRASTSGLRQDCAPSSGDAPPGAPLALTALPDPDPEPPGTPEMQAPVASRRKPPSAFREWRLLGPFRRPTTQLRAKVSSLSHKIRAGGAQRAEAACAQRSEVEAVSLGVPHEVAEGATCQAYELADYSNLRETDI
Briefly: Binding affinity to adrenergic alpha1D receptor (unknown origin) by radioligand binding assay.

pEC50, pIC50, pKi: −log10 of the molar value. Where only a bound is given, the exact number is not on record here.

Sequence of Histamine H3 receptor (Q9Y5N1 whole entry): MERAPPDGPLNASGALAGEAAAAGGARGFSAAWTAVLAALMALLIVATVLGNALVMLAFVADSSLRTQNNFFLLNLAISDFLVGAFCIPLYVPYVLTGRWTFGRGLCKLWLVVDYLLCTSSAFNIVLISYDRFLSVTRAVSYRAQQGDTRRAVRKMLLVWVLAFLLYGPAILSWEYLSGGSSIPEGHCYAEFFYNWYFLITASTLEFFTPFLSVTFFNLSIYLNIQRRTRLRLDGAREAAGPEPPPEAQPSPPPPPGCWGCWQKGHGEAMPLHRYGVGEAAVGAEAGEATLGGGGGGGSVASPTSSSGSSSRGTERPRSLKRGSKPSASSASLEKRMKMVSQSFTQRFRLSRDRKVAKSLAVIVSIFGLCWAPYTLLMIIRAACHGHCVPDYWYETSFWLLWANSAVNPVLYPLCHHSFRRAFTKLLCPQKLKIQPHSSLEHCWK
Description for MDA-MB-231: Cytotoxicity against human MDA-MB-231 cells after 48 hrs by Alamar Blue assay

Usually AUC stands for concentration integrated over time. By Cmax is commonly meant the highest concentration seen after dosing. On to `COc1cc2c(NC3CCN(C(C)C)CC3)nc(C3CCCCC3)nc2cc1OCCCN1CCCC1`, for which, in the data set on Plasma [1], the AUC is 404 ng·h/mL. Besides, the Cmax in the data set with Plasma [2] came out at 66 ng/mL. For the same compound, in the data set on Liver, the t1/2 came to 73 min.

The pIC50 is the IC50 on a negative log10 scale, so that one unit is a factor of ten. A low value points to a high IC50. Regarding `COc1cc2c(NC3CCN(C(C)C)CC3)nc(N3CCCCC3)nc2cc1OCCCN1CCCC1`, the pIC50 in data set [3] is > 8.60.

With `COc1cc2c(NC3CCN(C(C)C)CC3)nc(N3CCCCCC3)nc2cc1OCCCN1CCCC1`, the pIC50 in [3] is > 8.60.

For `COc1cc2c(NC3CCN(C(C)C)CC3)nc(C3CCOCC3)nc2cc1OCCCN1CCC(F)(F)CC1`, the t1/2 in the data set on Liver is recorded as 10 min. Also, the pIC50 in [3] is < 4.30.

For the compound `COc1cc2c(NC3CCN(C(C)C)CC3)nc(C3CCCCC3)nc2cc1OCCCN1CCC(F)(F)CC1`, in data set [3], the pIC50 is < 4.59.

By pEC50 is commonly meant −log10 of the EC50, conventionally taken in molar units. Low values mean a large EC50, high ones a small EC50. As for `COc1cc2c(NC3CCN(C(C)C)CC3)nc(C3CCOCC3)nc2cc1OCCCN1CCCC1`, the t1/2 with Liver is listed as 16 min. Further, the negative logarithm of the IC50 (pIC50) is 6.51 in [4] and 8.05 in [3]. For the same compound, the pEC50 in the data set with MDA-MB-231 is < 4.30.

Turning to `COc1cc2c(NC3CCN(C4CC4)CC3)nc(N3CCS(=O)(=O)CC3)nc2cc1OCCCN1CCCC1`, the pIC50 is 6.23 in data set [4] and 8.40 in data set [3]. Also, the pEC50 with MDA-MB-231 was < 4.30.

For the compound `COc1cc2c(NC3CCN(C4CC4)CC3)nc(N3CCC(F)(F)CC3)nc2cc1OCCCN1CCCC1`, the pIC50 is 6.51 in data set [4] and 8.52 in [3]. In the data set on MDA-MB-231, this compound had a pEC50 of 4.83.

As to `COc1cc2c(NC3CCN(C(C)C)CC3)nc(N3CC(F)(F)C(F)(F)C3)nc2cc1OCCCN1CCCC1`, the t1/2 with Liver is listed as > 90 min. Also, in data set [3], the pIC50 is 7.59.

Consider `COc1cc2c(NC3CCN(C(C)C)CC3)nc(N3CCS(=O)(=O)CC3)nc2cc1OCCCN1CCCC1`, for which, in data set [3], the pIC50 was 7.85.

As usually defined, the AUC(0-t) is exposure summed from dosing to a finite time, without extrapolation to infinity. Higher therefore signals more exposure. `COc1cc2c(NC3CCN(C(C)C)CC3)nc(N3CCOCC3)nc2cc1OCCCN1CCCC1` gave an AUC(0-t) at 24 h in data set [5] of 721 ng·h/mL. In the data set on Nucleic Acid, the BPR worked out at 0.68. Further, the AUC in the data set on Plasma [1] worked out at 1061 ng·h/mL. The Cmax in the data set on Plasma [2] is 731 ng/mL; in data set [6] it was 99 ng/mL. Further, the t1/2 in the data set with Liver is > 90 min. The pEC50 with MDA-MB-231 was 4.63.

By pKi is commonly meant the Ki on a negative log10 scale, so that one unit is a factor of ten. High values mean a small Ki, low ones a large Ki. `COc1cc2c(NC3CCN(C(C)C)CC3)nc(N3CCC(F)(F)CC3)nc2cc1OCCCN1CCCC1`: the pEC50 in the data set with PANC-1 is 5.46; in the data set on PC-3, 5.05; with U2OS, 5.22; in the data set with MDA-MB-231, 4.78. Also, the pKi was 6.05 in data set [7], 7.35 on Histamine H3 receptor, < 5.00 in data set [8] and 5.35 in data set [9]. The compound also returned an exposure AUC(0-t) at 24 h in data set [5] of 412 ng·h/mL. In addition, the BPR in the data set with Nucleic Acid is 0.33. In the data set on Plasma [1], this compound yielded an AUC of 1265 ng·h/mL. For the same compound, the Cmax in the data set with Plasma [2] worked out at 947 ng/mL; in [6] it was 68 ng/mL. Also, in the data set on Liver, the t1/2 is > 90 min.
